{
  "source": "patent US20140227173A1",
  "about": "“CANCER TREATMENT WITH GAMMA-SECRETASE INHIBITORS” (The Johns Hopkins University, priority 2006, published 2014)",
  "key": {"[1]": {"system": "DAOY", "experiment": "Xenograft initiation by pretreated cells injected subcutaneously in athymic (nude) mice", "type": "in vivo", "description": "A clonogenic assay was used to determine whether cells capable of initiating anchorage-independent colonies were depleted by GSI-18. In vehicle-treated DAOY cultures, 2.9% of cells formed large colonies when seeded in soft agar (FIG. 7H). This number dropped to 0.26% when an equal number of viable cells were counted and seeded after 48 hours of treatment with GSI-18, and increased to 7.2% in the presence of constitutive Notch2 activation. Initiation of tumor xenografts was assayed next, a strategy used in several previous studies to examine the presence or absence of cancer stem cells (6-8). DAOY and DAOY:NICD2 cultures were treated with either 2 μM GSI-18 or vehicle alone, and the viable cells remaining after 48 hours counted using Trypan blue. 500,000 viable cells from each group were then injected subcutaneously in athymic (nude) mice. Large xenografts formed at the sites of all 12 control injections. […] To rule out the possibility that cells were alive but moribund following gamma-secretase inhibition, the experiment was repeated with cells counted after a recovery period."}, "[2]": {"system": "DAOY:NICD2", "experiment": "Flow cytometric analysis of CD133-positive fraction", "type": "cell-based", "conditions": "DAOY:NICD2 expressing truncated Notch2; 2 μM", "description": "Consistent with the hypothesis that Notch is important in CSC, gain or loss of pathway activity modulated the size of the CD133-expressing stem-like subpopulation (FIG. 4B). This fraction was elevated to 17.2% in DAOY cells stably transfected with a plasmid encoding the constitutively active Notch2 intracellular domain (DAOY:NICD2). In contrast, Notch pathway inhibition using GSI-18, a potent sulfonamide GSI (21), reduced the CD133-positive stem-like fraction […] to 3.3% (p<0.01). […] 2 μM GSI-18 was used in these experiments, as both mRNA and protein levels of the Notch pathway target Hes1 are reduced over 70% after 48 hours by this concentration of the drug (FIG. 4E).\nThe DAOY, PFSK, D283 and D425 Med cell lines were obtained from the American Type Culture Collection. The low-passage MB line MB2 was derived from a tumor resected at Johns Hopkins Hospital. […] Cell mass was measured using CellTITER assays according to the manufacturer's instructions (Promega, Madison, Wis.). Cell number and viability were assessed using the Guava PCA and Viacount reagent according to instructions (Guava Technologies, Heyward, Calif.). Soft agar assays were performed as previously described (15) and scored either manually after 4 weeks or using as automated reader after 6 weeks. […] Soft agar assays were performed as previously described, with colonies counted using an automated reader (15). […]"}},
  "data": [
    {"smiles": "O=S(=O)(NC1C2CCC1Cc1ccccc1C2)c1cccs1", "note": "(stereo not drawn) [GSI-18, [11-endo]-N-(5,6,7,8,9,10-hexahydro-6,9-methanobenzo[α][8]annulen-11-yl)-thiophene-2-sulfonamide]", "values": [
      {"measurement": "xenograft formation from pretreated cells", "setting": "[1]; 2 μM, 48 hours pretreatment, 500,000 viable cells injected subcutaneously", "value": "only one very small lesion formed among the four sites"},
      {"measurement": "tumor formation from pretreated cells after recovery", "setting": "[1]; two days of treatment, 24 hours recovery in 10% FBS without inhibitor", "value": "unable to form tumors"},
      {"measurement": "sensitivity of CD133-positive fraction to the inhibitor", "setting": "[2]", "value": "insensitive to GSI-18"}
    ]}
  ]
}
